Data taken from patent publication US12649748B2, “Wee1 inhibitor and use thereof” (JIANGSU TASLY DIYI PHARMACEUTICAL CO., LTD., priority 2021, dated 2026).
In brackets after ≈: the same amount, converted by molar mass. Read-outs that look alike come from different tables or passages of the source.

Experiments:
[1] = target: T1, Wee1 protein (Homo sapiens, UniProt P30291); assay: Binding of compound to Wee1 protein and Tracer 178 by TR-FRET; conditions: inhibitory activity against Wee1 kinase, read-out: IC50 measured value
T1 construct: purchased Thermo Fisher PR7373A
Description: First, solutions of the compounds in different concentration gradients were prepared. […] DMSO was added as a positive control (maximal signal control) and a negative control (minimal signal control) and a final level of 0.25% DMSO was ensured in each reaction well.
WEE1 (Thermo Fisher, Cat #PR7373A) protein in buffer (50 mM Hepes pH 7.5, 10 mM MgCl2, 1 mM EGTA, 0.01% Brij-35) at 15 nM) in different concentrations of compound, and Tracer 178 (Invitrogen, PV5593) and MAb Anti-GST-Eu crypate (Cisbio, 61GSTKLA) were added to 384-well plates (Corning, cat #3574), centrifuged at 1000 rpm for 1 min and the 384-well plates were incubated in a constant temperature shaker for 60 min at 25° C. and 300 rpm. Tracer 178 and MAb Anti-GST-Eu crypate were prepared in buffer (50 mM HEPES pH 7.5, 10 mM MgCl2, 1 mM EGTA, 0.01% Brij-35) with a final reaction concentration of 50 nM for Tracer 178 and a final concentration of 2 nM for MAb Anti-GST-Eu crypate, where the negative control (minimal signal control) used an equal amount of buffer in place of the protein solution.
After incubation, readings were performed using BMG PHERAStar (excitation light at 337 nm and emission light at wavelength values of 620 nm and 665 nm to read the fluorescence signal values). […] The IC50 for inhibition of enzyme activity by the compounds was then calculated using GraphPad Prism 6 and fitted with a log (inhibitor) vs. response-Variable slope mode. The fitting equation was: Y=Bottom+(Top-Bottom)/(1+10^((Log IC50−X)*HillSlope)), where Y represents the percentage of residual enzyme activity known and X represents the known concentration of compound after the logarithm.

[2] = Solubility test; format: physicochemical; conditions: aqueous buffer, thermodynamic from solid; buffer solution, shaken at constant temperature 24 h
Description: The compound was placed in a buffer solution and shaken at constant temperature for 24 h. […] Chromatographic conditions: C18 column, mobile phase A: 0.02 M potassium dihydrogen phosphate:acetonitrile=90:10, mobile phase B: acetonitrile; V: 1.0 ml/min, T: 35° C., λ: 210 nm.

[3] = test system: H1299 cells; assay: Anti-proliferative effect by Cell Titer-Glo, H1299; format: cell-based; conditions: Homo sapiens, NCI-H1299, 72 h, read-out: IC50 measured value H1299
Description: (§1) Compound solutions of different concentration gradients were prepared. DMSO was dissolved to a concentration of 10 mM test compound and 10 mM reference compound AZD1775, and the compounds were serially diluted in culture medium for a total of 9 dose points, with 2 parallel replicates set at each concentration. The cell growth group without compound was used as a positive control (maximum signal control) and the medium was used as a negative control (minimum signal control), while ensuring that the final level of DMSO in each reaction well was 0.2%. After removing the medium from the 384-well plate, 25 ul of the configured compound at different concentrations was transferred into the well plate and the compound and cells were incubated in the cell incubator at 37° C. with 5% CO2 for 3 days.
(§2) The 384-well plates were removed from the cell incubator and allowed to equilibrate for 1 h to room temperature. 25 ul of Cell Titer-Glo assay was added to each well, lysed on a shaker for 2 min and then read out (Luminescence) using a BMG PHERAStar after 10 min incubation. Calculate the inhibition rate from the luminescence signal: first calculate the average of the positive control (maximum signal control) and the negative control (minimum signal control).
(§3) [formula] to calculate the rate of inhibition of the cells by different concentrations of the compounds. The IC50 of the compound on cell activity inhibition was calculated by fitting a log(inhibitor) vs. response-Variable slope model to GraphPad Prism 6. The fitted equation was: Y=Bottom+(Top−Bottom)/(1+10^((Log IC50−X)*HillSlope)), where Y represents the rate of inhibition and X represents the concentration of the known compound after Log.

[4] = Metabolic stability of liver microsomes in vitro (mouse); format: in vitro ADME; conditions: read-out: Mouse T1/2/min
Description: (§4) Microsomes were taken out from the −80° C. refrigerator, rapidly melted in a 37° C. water bath and placed on ice until ready to use. The test article was diluted with DMSO to prepare a 10 mM stock solution, and then diluted with acetonitrile to a 0.5 mM secondary stock solution. The microsomes were diluted to 0.75 mg/ml using Buffer C; the secondary stock solution was then added to a final concentration of 1.5 μM of compound as working solution, based on n=2, 5 time points, 350 μL of each compound was prepared and placed on ice prior to use. NADPH was diluted with Buffer C to a working solution of 6 mM for the starter solution. An acetonitrile solution containing an internal standard was prepared as the precipitant, and Verapamil-HCl was chosen as the internal standard at a concentration of 4 ng/ml.
(§5) A round-bottom well plate was taken, noted as the reaction plate, and the prepared working solution for each compound was dispensed into the well plate according to the number of replicates and time points (0 h samples are also added to the reaction plate), 30 μL/well; the plate was incubated at 37° C. for 10 min. A separate plate with pointed bottom wells, noted as a precipitation plate, was added with 135 μL precipitant per well; 0 h samples were transferred to the plate after 10 min incubation and 15 μL of starter solution was added; the plate was placed on ice before centrifugation.
(§6) The diluted starter solution was added in sufficient quantity to the dispensing plate to facilitate the multichannel pipette aspiration operation.
(§7) The reaction was carried out on a warm incubation shaker and 15 μL of starter solution/sample is added to the plate using a multichannel pipette. The reaction was mixed with a slight shake to initiate the reaction, which was accurately timed and recorded using a timer;
(§8) After the reaction time had elapsed, all the solution in the plate was aspirated using the multichannel pipette and added to the precipitation plate to terminate the reaction at that point in time. After all reactions had been terminated, the plates were shaken for ten minutes on a plate shaker at 600 rpm to precipitate the protein. The plate was centrifuged at 4° C. for 15 minutes at maximum rpm. 80 μL of supernatant was taken, 320 μL of pure water was added and mixed for LC-MS analysis.

[5] = Metabolic stability of liver microsomes in vitro (human); format: in vitro ADME; conditions: read-out: Human T1/2/min
Description: as §4, §5, §6, §7, §8

[6] = test system: MIA Paca-2 cells; assay: Anti-proliferative effect by Cell Titer-Glo, MIA Paca-2; format: cell-based; conditions: Homo sapiens, read-out: IC50 measured value MIA Paca-2
Description: as §1, §2, §3

[7] = Compound pharmacokinetics in mice; format: in vivo; conditions: male ICR mice, oral gavage 10 mg/kg, plasma; for Cmax / AUC(0-inf) / half-life: mouse; for AUC(0-inf): read-out: AUCinf—Pred; for half-life: read-out: T½ (converted)
Description: To investigate the pharmacokinetic properties of the compound in mice, six male ICR mice were given the compound by oral gavage (10 mg/kg) at the corresponding dose, and each route of administration was divided into two groups: group A mice had anticoagulated whole blood collected at 5 min, 30 min, 2 h and 8 h after administration, while group B mice had anticoagulated whole blood collected at 15 min, 1 h, 4 h and 24 h after administration, isolated plasma;
The plasma concentrations of the compounds were determined by LC-MS using a standard curve calibration method. Plasma concentration-time data were fitted to pharmacokinetic parameters using Winnolin 5.2 software.

[8] = Membrane permeability study (Caco-2); format: in vitro ADME; conditions: human; for efflux ratio at 90 min, 10 µM: Caco-2, pH 7.4, read-out: Efflux Ration; for Papp A→B at 90 min, 10 µM / Papp B→A at 90 min, 10 µM: pH 7.4, Caco-2, 10 μM; for Papp A→B at 90 min, 10 µM: A to B; for Papp B→A at 90 min, 10 µM: B to A
Description: Caco-2 cells were purchased from the […] (Rockville, MD). The cell culture medium was modified Eagle's medium (MEM) containing 10% inactivated fetal bovine serum and 1% non-essential amino acids. Cells were inoculated on polycarbonate filter membranes (Cat no. 3396) and incubated at 37° C. in a 5% CO2 incubator.
The cells were incubated for 21-28 days after inoculation for transport experiments and the apparent permeability (Papp) of Lucifer Yellow was used to characterize and verify the compactness of the cell monolayer. A stock solution of 10 mM was prepared by dissolving the compound in DMSO and diluted using Hanks Balanced Salt Solution (HBSS, Invitrogen, Cat #14025-092) containing 25 mM HEPES (pH 7.4) to obtain the working solution. A 10 μM working solution of the compound to be tested was added to the apical side and basolateral side of Caco-2 and incubated at 37° C. for 90 min. After the incubation, dilute the samples on the apical side and basolateral side, and the concentrations of compounds on the apical and basolateral sides were detected by LC-MS/MS, and the concentrations of the compounds were quantified by standard curve.

[9] = H1299 cells, 3 days, Cell Titer-Glo
[10] = 72 h, MIA Paca-2 cells, 3 days, Cell Titer-Glo

T1 sequence (P30291 whole entry): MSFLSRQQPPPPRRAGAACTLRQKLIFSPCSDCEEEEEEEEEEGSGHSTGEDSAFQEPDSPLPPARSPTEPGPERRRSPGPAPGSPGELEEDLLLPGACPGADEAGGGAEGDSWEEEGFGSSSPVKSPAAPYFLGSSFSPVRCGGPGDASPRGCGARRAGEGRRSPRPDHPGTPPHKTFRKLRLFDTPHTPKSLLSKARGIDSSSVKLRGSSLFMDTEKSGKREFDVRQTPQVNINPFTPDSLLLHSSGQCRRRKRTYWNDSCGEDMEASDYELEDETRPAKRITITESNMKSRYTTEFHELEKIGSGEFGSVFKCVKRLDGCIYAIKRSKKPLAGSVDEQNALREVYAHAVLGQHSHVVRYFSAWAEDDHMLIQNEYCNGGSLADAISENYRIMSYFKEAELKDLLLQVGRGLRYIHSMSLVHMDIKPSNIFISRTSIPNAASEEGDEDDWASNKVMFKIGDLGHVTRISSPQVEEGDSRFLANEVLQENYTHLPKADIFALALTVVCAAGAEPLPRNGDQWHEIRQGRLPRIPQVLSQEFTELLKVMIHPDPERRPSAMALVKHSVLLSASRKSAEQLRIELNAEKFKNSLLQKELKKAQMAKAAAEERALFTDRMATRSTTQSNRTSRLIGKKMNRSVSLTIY

Structure (SMILES)	IC50 [1]	IC50 [3, 9]	IC50 [6, 10]	IC50 [3]	other results
CN1CCN(c2ccc(Nc3ncc4cnn(-c5cccc(C6(C#N)CC6)n5)c4n3)cc2)CC1 [Compound 3]	0.01 to 0.1 µM	–	–	1 to 5 µM	solubility at 24 h [2]: 60 µg/mL (≈ 133 µM)
CN1CCC(c2ccc(Nc3ncc4cnn(-c5cccc(N=S(C)(C)=O)n5)c4n3)cc2)CC1 [Compound 18]	0.001 to 0.01 µM	1 to 5 µM	0.1 to 1 µM	–	half-life at 1 µM [4]: > 120 min; half-life at 1 µM [5]: > 120 min
CCC1(O)CCc2ccc(-n3ncc4cnc(Nc5ccc(N6CCN(C)CC6)cc5)nc43)nc21 (stereo not drawn) [Compound 57]	0.1 to 1 µM	1 to 5 µM	0.1 to 1 µM	–	–
CCN1C(=O)COc2ccc(-n3ncc4cnc(Nc5ccc(N6CCN(C)CC6)cc5)nc43)cc21 [Compound 59]	0.01 to 0.1 µM	–	–	0.1 to 1 µM	IC50 ([6]; MIA PaCa-2, 72 h): 0.1 to 1 µM
CCn1ncc2ccc(-n3ncc4cnc(Nc5ccc(N6CCN(C)CC6)cc5)nc43)nc21 [Compound 60]	0.01 to 0.1 µM	–	–	1 to 5 µM	IC50 ([6]; MIA PaCa-2, 72 h): 0.1 to 1 µM
CCN1C(=O)C2(CC2)c2ccc(-n3ncc4cnc(Nc5ccc(N6CCN(C)CC6)cc5)nc43)cc21 [Compound 61]	0.1 to 1 µM	–	–	5 to 20 µM	IC50 ([6]; MIA PaCa-2, 72 h): 1 to 5 µM

Second part, led by results:

IC50 [1]	IC50 [3, 9]	IC50 [6, 10]	Structure (SMILES)	IC50 [3]	other results
0.1 to 1 µM	5 to 20 µM	1 to 5 µM	CN1CCN(c2ccc(Nc3ncc4cnn(-c5ccnc(N=S(C)(C)=O)c5)c4n3)cc2)CC1 [Compound 28]	–	Cl_pred [7]: 230 mL/min/kg; Cmax [7]: 337 ng/mL; AUC(0-inf) [7]: 743 ng·h/mL; half-life [7]: 107 min
0.01 to 0.1 µM	0.1 to 1 µM	0.1 to 1 µM	CN1CCN(c2ccc(Nc3ncc4cnn(-c5ccc6c(c5)C(C)(O)CO6)c4n3)cc2)CC1 (stereo not drawn) [Compound 40]	–	Cl_pred [7]: 405 mL/min/kg; Cmax [7]: 377 ng/mL; AUC(0-inf) [7]: 493 ng·h/mL; half-life [7]: 42 min; half-life at 1 µM [4]: 20.4 min; efflux ratio at 90 min, 10 µM [8]: 0.89; Papp A→B at 90 min, 10 µM [8]: 18.6 ×10⁻⁶ cm/s; Papp B→A at 90 min, 10 µM [8]: 16.6 ×10⁻⁶ cm/s
0.01 to 0.1 µM	0.1 to 1 µM	0.1 to 1 µM	CCn1cnc2ccc(-n3ncc4cnc(Nc5ccc(N6CCN(C)CC6)cc5)nc43)cc21 [Compound 45]	–	half-life at 1 µM [4]: 10.3 min; efflux ratio at 90 min, 10 µM [8]: 1.79; Papp A→B at 90 min, 10 µM [8]: 4.09 ×10⁻⁶ cm/s; Papp B→A at 90 min, 10 µM [8]: 7.34 ×10⁻⁶ cm/s
0.01 to 0.1 µM	< 0.1 µM	0.1 to 1 µM	Cc1nc2ccc(-n3ncc4cnc(Nc5ccc(N6CCN(C)CC6)cc5)nc43)cc2n1C [Compound 58]	–	–
0.1 to 1 µM	5 to 20 µM	1 to 5 µM	CN1CCN(c2ccc(Nc3ncc4cnn(-c5ccc6nncn6c5)c4n3)cc2)CC1 [Compound 62]	–	–
